Entries after “also recorded” stand apart in the source; their conditions may differ.
What was measured:
[1] = test system: T84 cells; assay: cGMP synthesis in T84 cells; format: cell-based, human
[2] = test system: human colonic mucosa; assay: Transepithelial short circuit current (Isc) across human ascending colonic mucosa, Ussing chamber; settings: human ascending colon, linaclotide 30 nmol/L and 1000 nmol/L, apical, pH 7.4, 37°C; mean ± SEM (n = 12)
[3] = Stability of linaclotide in human mucosa tissue supernatants by LC-MS; settings: human intestinal mucosa supernatants, 1 μmol/L, 30 and 60 min incubation, 37°C
[4] = test system: rat proximal colonic mucosa; assay: Transepithelial short circuit current (Isc) across rat proximal colonic mucosa, Ussing chamber; design: species or system rat (Sprague–Dawley); settings: rat proximal colonic mucosa, linaclotide 6 nmol/L and 100 nmol/L, apical; mean ± SEM (n = 4)
[5] = test system: CFTR; assay: Confocal immunofluorescence of CFTR in rat intestine; format: in vivo; settings: linaclotide 5 μg, 30 min
Experimental: (§1) All animal studies were approved by the Institutional Animal Care and Use Committee of Yale University School of Medicine. Briefly, male Sprague–Dawley rats (200–250 g, Charles River Laboratories) were fasted overnight with access to drinking water ad libitum. Anesthesia was performed with Inactin® (Thiobutabarbital sodium salt hydrate, 120 mg/kg/i.p.). The jejunal, ileal, and proximal colonic loops (5 cm length) were prepared using sutures. Loops were instilled either with normal saline (pH7.4, 37°C) (1 mL/loop) or linaclotide (5 μg/mL/loop) for 30 min. At the end of the study, animals were euthanized with Inactin (200 mg/kg/i.p.).
After completion of treatment either with normal saline or linaclotide for 30 min, intestinal segments were immediately removed and briefly rinsed with ice‐cold PBS. Tissues were cut into ~2‐mm‐thick rings, fixed in 2% paraformaldehyde in PBS, pH 7.4 for 1 h at room temperature, rinsed with PBS and cryoprotected in 30% sucrose overnight. Multiple tissue samples were processed under identical conditions by the utilization of tissue arrays as previously described (Jakab et al. 2011). […] Immunolabeled sections were stored at 4°C and examined on Zeiss LSM 710 DUO laser scanning confocal microscope outfitted with a Mai‐Tai laser and electronics capable of spectrally separating fluorescence emission profiles. […]

[6] = test system: rat jejunum; assay: Fluid secretion in ligated rat jejunal loops in vivo; design: species or system rat (Sprague–Dawley); settings: linaclotide 5 μg/mL/loop, 30 min, vs saline (1 mL)
Experimental: as §1
The guanylate cyclase‐C (GC‐C) agonist linaclotide stimulates the production and accumulation of intracellular cGMP, which acts as a second messenger to enhance fluid secretion in the intestine (Schulz et al. 1990; Busby et al. 2013). We first tested whether linaclotide can enhance fluid secretion in vivo in the rat small intestine. Following anesthesia and laparotomy, intestinal loops were created in rat jejunum and injected either with vehicle (saline, 1 mL) or linaclotide (5 μg/1 mL). […] In this study, we examined whether linaclotide treatment also stimulates fluid secretion by recruiting CFTR to the apical surface of rat jejunum enterocytes in vivo. […]

[7] = test system: CFTR; assay: Surface biotinylation of CFTR in T84 cells; format: cell-based, human; settings: linaclotide 1 μmol/L and 3.27 μmol/L, 30 min
[8] = test system: cGKII (PKGII); assay: VASP Ser239 phosphorylation in T84 cells, Western blot; format: cell-based, human; settings: linaclotide 1 and 3.27 μmol/L, 30 min, 8Br‐cGMP 0.2 and 1 mmol/L positive control
Experimental: C2BBe or T84 cells were homogenized in TGH lysis buffer [25 mmol/L HEPES, 10% (vol/vol) glycerol, 1% (vol/vol) Triton‐ × 100, pH 7.4] containing protease inhibitors (10 nmol/L iodoacetamide, 1 mmol/L phenylmethylsulfonyl fluoride (PMSF), 2 μg/mL leupeptin) for 30 min on ice. Homogenates were solubilized, subject to centrifugation at 13,200 g for 15 min at 4°C, and cleared supernatants were recovered. Protein concentration of the supernatant was determined with Coomassie Protein Assay Reagent (Pierce) and samples prepared and analyzed as described (Kravtsov et al. 2016). Quantification of surface‐labeled proteins was performed with Quantity One image analysis software.
VASP was originally characterized as a substrate for both PKG (cGMP‐dependent kinase) and PKA (cAMP‐dependent kinase). […] To determine linaclotide‐induced activation of cGKII, we determined the phosphorylation of VASP^Ser239 30 min following treatment either with vehicle or linaclotide (1 μmol/L and 3.27 μmol/L; the 3.27 μmol/L concentration is equivalent to the 5 μg dose of linaclotide that was used in vivo in the rat jejunum loop). The membrane permeant cGMP analog, 8 Br‐cGMP (0.2 mmol/L, 1 mmol/L), was used as a positive control.

[9] = test system: CFTR; assay: Surface biotinylation of CFTR in rat jejunum enterocytes after in vivo loop treatment; settings: linaclotide 5 μg/mL/loop, 30 min in vivo, vs saline and untreated, mean ± SEM (n = 4)
[10] = test system: CFTR; assay: Surface biotinylation of CFTR in C2BBe cells; format: cell-based, human; settings: linaclotide 1 μmol/L and 3.27 μmol/L, 30 min
[11] = test system: C2BBe cells; assay: cGMP synthesis in C2BBe cells; format: cell-based, human
[12] = test system: rat proximal colonic mucosa; design: method as in 2 sources, one per row (each row's own in cited_ref): ref Tchernychev et al. 2015 ||| ref Vaandrager et al. 1997; settings: rat proximal colon / colonic epithelium; ref Tchernychev et al. 2015; read-out: EC50 for transepithelial ion current; cited from earlier work
[13] = test system: GC‐C; settings: ref Bryant et al. 2010; Busby et al. 2010; cited from earlier work
Description: The synthetic GC‐C agonist peptide, linaclotide, is an FDA‐approved drug for adult patients with Irritable Bowel Syndrome with Constipation (IBS‐C) and Chronic Idiopathic Constipation (CIC) (Bryant et al. 2010; Busby et al. 2010). IBS‐C is a highly prevalent, chronic functional gastrointestinal disorder with a global prevalence estimated to range from 5% to 20% (Mayer 2008; Quigley et al. 2012).

[14] = test system: GC‐C; assay: cGMP in human intestinal mucosa tissues and supernatants; settings: human jejunum, ileum, ascending colon mucosa, linaclotide 1 μmol/L, 30 and 60 min, 37°C, IBMX 1 mmol/L, EIA, mean ± SD (n = 4)
[15] = IBMX 1 mmol/L 10 min, linaclotide 0.001–10 μmol/L 30 min, 37°C, pH 7, cGMP in supernatants by LC/MS/MS, n = 4
[16] = linaclotide 0.001–10 μmol/L, 30 min, IBMX 1 mmol/L

linaclotide
EC80 for cGMP synthesis (approximate) [1]: ~1000 nM | EC100 for cGMP synthesis (approximate) [1]: ~3 µmol/L | EC50 [1, 15]: 772 nM | cGMP synthesis [1, 16]: concentration dependently stimulated cGMP synthesis | linaclotide-induced transepithelial ion current (Isc) [2]: induced transepithelial ion current at concentrations of 30 nmol/L and 1000 nmol/L | stability of linaclotide in tissue supernatants [3]: stable under these conditions | linaclotide-induced transepithelial ion current (Isc) [4]: induced a transepithelial ion current at both concentrations | CFTR localization in brush border (confocal) [5]: accumulation of CFTR in the brush border | fluid secretion in jejunal loop [6]: robust fluid secretion; also recorded: distended and tightly filled with fluid; also recorded: robust increase in fluid accumulation in jejunum loops | CFTR recruitment to cell surface [7]: increased cell surface CFTR levels; also recorded: robust recruitment of CFTR to the apical surface; also recorded: robust increase in surface levels of CFTR compared to untreated control cells | phosphorylation of VASP Ser239 [8]: more robust phosphorylation of VASP^Ser239 compared to 8Br‐cGMP; also recorded: higher levels of VASP^Ser239 phosphorylation compared to the lower concentration | phosphorylation of VASP Ser239 ([8]; listed as Linaclotide): more strongly enhanced phosphorylation of VASP^Ser239 compared to the cGMP analog 8‐Br‐cGMP | surface CFTR (surface biotinylation, Western blot) [9]: highest levels of surface CFTR; also recorded: robust increase in surface CFTR when compared to the untreated intestine | CFTR recruitment to cell surface [10]: increased cell surface CFTR levels; also recorded: robust recruitment of CFTR to the apical surface; also recorded: robust increase in surface levels of CFTR compared to untreated control cells; also recorded: higher surface CFTR levels in C2BBe cells compared to T84 cells | EC80 for cGMP synthesis (approximate) [11]: ~1000 nM | EC100 for cGMP synthesis (approximate) [11]: ~3 µmol/L | EC50 [11, 15]: 523 nM | cGMP synthesis [11, 16]: concentration dependently stimulated cGMP synthesis | EC50 [12]: 9.2 nM | fluid secretion [13]: increased fluid secretion | intestinal transit [13]: accelerated intestinal transit | cGMP level in supernatant (extracellular) [14]: greater after 30 min, compared to levels measured after 60 min | cGMP level in tissue (intracellular) [14]: greater after 30 min, compared to levels measured after 60 min | cGMP level in supernatant (extracellular) ([14]; listed as Linaclotide): increased levels of both intracellular and extracellular cGMP | cGMP level in tissue (intracellular) ([14]; listed as Linaclotide): increased levels of both intracellular and extracellular cGMP
